Values belong to the compound of their own block, whether it stands above or below them.
What was measured:
rabbit platelets = assay: Cytotoxicity assay in rabbit platelets; type: cell-based; details: 12.5-50 μM, 30 min treatment, data not shown
PAF receptor = biological target: T1, PAF receptor (Oryctolagus cuniculus, UniProt G1TEI7); assay: [3H]PAF receptor binding assay using rabbit washed platelets
T1 construct: from tissue; host or cells: rabbit washed platelets (intact)
Description: [^3H]PAF receptor binding assay is prepared using rabbit washed platelets. […] The reaction mixture was incubated at 4° C. for 2 hrs and then 5 mL of BSA-containing saline solution was added to terminate the reactions. The free and bound ligands were separated by filtration using a Whtman GF/C glass fiber filters which were presoaked with ice-cold water. The filters were rapidly washed with the same solution and then dried and placed into vials containing 10 mL of the scintillation fluid. Radioactivity was measured in a liquid scintillation counter (Beckman LS3801). The difference between the total radioactivity of bound [^3H]PAF in the absence and in the presence of excess unlabeled PAF is defined as specific binding of the radio-labeled ligand. In a batch of experiments, [^3H]PAF was incubated with different concentrations of PAF receptor antagonists, and the effect of the antagonist on the specific binding was expressed as percentage inhibition of the control.
Percent inhibition (%)=[100−(B/A×100)](%)
wherein A represents percent aggregation in control added and B represents percent aggregation in compound added.

PGE2 formation = assay: Prostaglandin E2 formation induced by AA in rabbit washed platelets (EIA); type: cell-based; details: AA 100 μM
Description: (§1) After challenging platelets with AA (100 μM) for 6 min, 1 mM EDTA and 20 μM indomethacin were added to terminate the reaction. By centrifugation for 5 min at 4° C. and 10,000×g, the TXB2 and PGE2 in the supernatants were assayed using EIA kits according to the procedure described by the manufacturer.

[1] = system: AA-induced platelet aggregation; assay: AA-induced platelet aggregation in rabbit washed platelets; type: cell-based; details: AA 100 μM
Description: Platelet suspension was prepared as follows. Blood was collected from the marginal ear vein of New Zealand White rabbits. The blood was then anticoagulated with acid citrate dextrose (ACD, 1:6, v/v) and centrifuged for 8 min at 1000×g at room temperature. The upper portion was collected as platelet-rich plasma (PRP) and mixed with EDTA to a final concentration of 5 mM. The platelet pellets were obtained from EDTA-mixed PRP by centrifugation for 12 min at 2000×g. The platelet pellets were suspended with Ca^2+-free Tyrode's solution, and then incubated with apyrase (1 unit mL^−1) for 15 min at 37° C. […] The concentration of platelets was adjusted to 2.5×10^8 platelets mL^−1.
Platelet aggregation was measured turbidimetrically with a light-transmission Platelet Aggregation Chromogenic Kinetic System PACK4 (Helena Laboratories, Beaumont, Tex., USA) with some modifications. […] Aggregation was induced with PAF (5 nM) and AA (100 μM). The absorbance of the Tyrode's solution was taken as 0% aggregation and that of the platelet suspension as 100% aggregation. The extent of platelet aggregation was measured as the maximal increase of light transmission within 4 min after addition of the inducers. When isopropanol was used as the solvent the final concentration was fixed at 0.5% (v/v) to eliminate the effect of the solvent. All glassware was siliconized.

[2] = system: PAF-induced platelet aggregation; assay: PAF-induced platelet aggregation in rabbit washed platelets; type: cell-based; details: PAF 5 nM, read-out: IC50, inhibition of platelet aggregation induced by PAF
Description: Blood samples were collected from the marginal ear artery of New Zealand white rabbits. The blood was then treated to obtained platelet-rich plasma (PRP) mixed with EDTA. The platelet pellet was obtained from the EDTA-anticoagulated PRP by centrifugation. The pellet was then suspended in Tyrode solution and incubated. Platelet numbers were then counted.
The platelet suspension was stirred with solvent of test compound in solvent of different concentrations. Aggregation inducer PAF was then added to trigger the aggregation. Aggregation was determined by the transmission method using a platelet aggregation chromogenic kinetic system. The initial transmittance of the Ca^2+-containing Tyrode solution was taken as 0% aggregation and that of the platelet suspension as 100% aggregation. […] Percent inhibition by a compound was calculated.
Platelet suspension was prepared as follows. […]
Platelet aggregation was measured turbidimetrically with a light-transmission Platelet Aggregation Chromogenic Kinetic System PACK4 (Helena Laboratories, Beaumont, Tex., USA) with some modifications. […] The absorbance of the Tyrode's solution was taken as 0% aggregation and that of the platelet suspension as 100% aggregation. The extent of platelet aggregation was measured as the maximal increase of light transmission within 4 min after addition of the inducers. […]

[3] = system: PAF-induced intracellular Ca2+ release; assay: PAF-induced intracellular Ca2+ release in fluo-3-loaded platelets; type: cell-based, rabbit; details: PAF 5 nM, 2.5-50 μM, read-out: IC50, inhibition of PAF-induced intracellular Ca2+ release
Description: Platelets pelleted from PRP were resuspended in Ca^2+-free Tyrode's solution, and then incubated with fluo-3/AM (2 μM) at 37° C. for 30 min. In order to prevent leakage of dye, probenecid (2.5 mM) was added to the buffers throughout the experiments. After washing, the fluo-3-loaded platelets were finally suspended in Ca^2+-free Tyrode's solution without heparin at a concentration of 1.3×10^8 platelets mL^−1. The fluo-3-loaded platelets were preincubated with α-bulnesene in the presence of extracellular calcium (1 mM) at 37° C. for 2 min prior to addition of PAF. Fluorescence (Ex 505 nm, Em 530 nm) was measured with a fluorescence spectrophotometer (Model F4500; Hitachi, Tokyo, Japan). At the end of the experiment, the cells were treated with digitonin (20%) followed by the addition of EGTA (50 mM) to obtain the maximal and minimal fluorescence, respectively. [Ca^2+]i was calculated as described for fluo-3/AM using the Ca^2+-dye dissociation constant 864 nM.

TXB2 formation = assay: Thromboxane B2 formation induced by AA in rabbit washed platelets (EIA); type: cell-based; details: AA 100 μM, 6 min
Description: as §1

T1 sequence (G1TEI7 1-342): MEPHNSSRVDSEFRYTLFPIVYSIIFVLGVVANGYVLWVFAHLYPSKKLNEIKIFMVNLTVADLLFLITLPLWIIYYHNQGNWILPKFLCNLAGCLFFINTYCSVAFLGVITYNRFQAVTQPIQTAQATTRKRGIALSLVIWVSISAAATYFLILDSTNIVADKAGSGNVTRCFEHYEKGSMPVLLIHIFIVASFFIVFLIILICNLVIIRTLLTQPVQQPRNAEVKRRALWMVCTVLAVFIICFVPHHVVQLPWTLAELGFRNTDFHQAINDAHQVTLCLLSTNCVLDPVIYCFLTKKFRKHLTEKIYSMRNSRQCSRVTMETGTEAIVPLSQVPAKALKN

Structure (SMILES): C=C(C)C1CCC(C)=C2CCC(C)C2C1 (stereo not drawn) [α-bulnesene, 1β,4-dimethyl-7β-isopropenyl-1,2,3,5,6,7,8,8aα-octahydroazulene]
toxicity in rabbit platelets (rabbit platelets): did not have any toxicity
IC50 (PAF receptor; 0.2 nM [3H]PAF, 4° C., 2 hrs): 17.6 ± 5.68 µM
PGE2 formation in the presence of AA (PGE2 formation; 25-100 μM, 6 min): inhibited
IC50 ([1]; read-out: IC50, inhibition of platelet aggregation induced by AA): 42.5 ± 5.97 µM
IC50 [2]: 24.5 ± 2.45 µM
IC50 [3]: 19.6 ± 1.32 µM
TXB2 formation stimulated by AA (TXB2 formation; 25-100 μM): inhibited

percent inhibition for [3H]PAF binding (PAF receptor; 10 μM, n=3): 10.10±1.74%
IC50 [2]: 2.4 ± 1.01 µM
Structure (SMILES): CCCCCCCCCCCCCCCCCCNC(=O)OCC(COP(=O)([O-])OCC[n+]1ccsc1)OC (centres unmarked) [CV-3988]
inhibition on AA-induced platelet aggregation [1]: no inhibition

Structure (SMILES): COc1ccc2c(c1)c(CC(=O)O)c(C)n2C(=O)c1ccc(Cl)cc1 [Indomethacin, indomethacin]
PGE2 formation in the presence of AA (PGE2 formation; indomethacin, concentration not restated (1 μM as positive control)): inhibited
inhibition at 1 µM (TXB2 formation; Oryctolagus cuniculus, Platelet, 0.1 h, 1 μM, read-out: percent inhibition of TXB2 formation): 98.05 ± 0.16%

Structure (SMILES): O=C(O)c1cc2cc(Cc3cccnc3)ccc2o1 [furegrelate]
PGE2 formation in the presence of AA (PGE2 formation; 300 μM): reversely enhanced
inhibition at 300 µM (TXB2 formation; Oryctolagus cuniculus, Platelet, 0.1 h, 300 μM, read-out: percent inhibition of TXB2 formation): 96.49 ± 0.78%

Reference: US20070088090A1, “Alpha-bulnesene, its preparation and its use” (Yangsen Biotechnology Co., Ltd., priority 2005, published 2007)
